Results from patent US8563564B2, “Composition for skin external application containing gallocatechin gallate for moisturizing effect on the skin” (priority 2005, dated 2013).

What was measured:
PPAR-α [1] = assay: PPAR-α activation capability, One-Factor-At-A-Time reporter gene (Dual-Luciferase) assay in CV-1 cells; format: cell-based; conditions: ratio based on the negative control, mean of three tests
From the text: (§1) One of the known methods for determining PPAR activation by observing PPAR activation/inactivation is reporter gene assay (Kliewer et. al., Nature, 1992, 358: 771-774). The reporter gene assay includes cloning a base sequence containing a promoter of interest and reporter genes, and injecting the base sequence into eukaryotic cells to activate transcription and to control the expression of a protein. Herein, protein expression increases as the promoter is activated. The reporter gene used for the first time is CAT (chloramphenicol acetyltransferase) gene. Recently, luciferase gene has been used widely. In the present invention, a Dual-Luciferase Reporter Assay System Kit available from Promega Co. was used. The following test was carried out to determine PPAR-α activation capability. CV-1 cells (ATCC CCL 70), i.e. monkey kidney epithelial cell line, were subcultured in a DMEM medium containing 10% bovine fetal serum treated with charcoal/dextrin. A phenol red-free medium was used to avoid the effect of estrogen upon phenol red. As plasmids, used were plasmids having PPRE (PPARs responsive element) as a promoter, followed by firefly luciferase genes as a reporter, the PPRE being activated by PPAR- (gene-containing PPAR- and ligand-bound PPAR-) bound next to the universal promoter expressed under general culture conditions, and a reference plasmid to which renilla luciferase genes were bound. CV-1 cells were plated on a 24-well microtiter plate at a concentration of 5×10^4 cells per well and cultured for 24 hours. Then, the above three types of plasmid genes were subjected to transient transfection by using a TransFast Kit available from Promega Co. After the cultured product was washed with PBS (phosphate buffered saline) once, the product was treated with a suitable concentration of sample materials, cultured again for 24 hours, and washed with PBS twice. Next, the cells were lysed with PLB (passive lysis buffer, Promega) once, and determined for luciferase activity by using a Dual-Luciferase Reporter Assay System Kit (Promega) in the samples and the controls. In this test, as a positive control, Wy14643 known as the strongest PPAR-α ligand was used. As negative controls, DMSO used to dissolve the samples and non-treated group were used. Each reported value was calculated as a ratio based on the negative control. The results are shown in the following Table 1, wherein each value is the mean value obtained after carrying out the test three times.

PPAR-α [2] = assay: PPAR-α activation capability of GCG/theobromine/quercetin combinations, response surface methodology (central composite design); format: cell-based
From the text: as §1, with “CV-1” for “One of the known methods for determining PPAR activation by observing PPAR activation/inactivation is reporter gene assay (Kliewer et. al., Nature, 1992, 358: 771-774). The reporter gene assay includes cloning a base sequence containing a promoter of interest and reporter genes, and injecting the base sequence into eukaryotic cells to activate transcription and to control the expression of a protein. Herein, protein expression increases as the promoter is activated. The reporter gene used for the first time is CAT (chloramphenicol acetyltransferase) gene. Recently, luciferase gene has been used widely. In the present invention, a Dual-Luciferase Reporter Assay System Kit available from Promega Co. was used. The following test was carried out to determine PPAR-α activation capability. CV-1”, “times. […] When using RSM, it is possible to understand the level of an independent parameter where a response value is optimized, to estimate the effect of an independent parameter upon response parameters via estimation of a functional relationship between each independent parameter and dependent parameter, and to determine optimized experimental conditions. […]” for “times.”

Molecule | PPAR-α Activation (PPAR-α [1]; 10 uM) | PPAR-α Activation (PPAR-α [1]; 100 uM) | also measured
Oc1cc(O)c2c(c1)O[C@H](c1ccc(O)c(O)c1)[C@@H](O)C2 [(+) CA] | 1.5 | 1.4 | 
Oc1cc(O)c2c(c1)O[C@@H](c1ccc(O)c(O)c1)[C@@H](O)C2 [(+) EC] | 1.3 | 1.2 | 
O=C(O[C@@H]1Cc2c(O)cc(O)cc2O[C@H]1c1ccc(O)c(O)c1)c1cc(O)c(O)c(O)c1 [(−) CG] | 1.2 | 1.6 | 
O=C(O[C@@H]1Cc2c(O)cc(O)cc2O[C@@H]1c1ccc(O)c(O)c1)c1cc(O)c(O)c(O)c1 [(−) ECG] | 1.1 | 1.6 | 
Oc1cc(O)c2c(c1)O[C@H](c1ccc(O)c(O)c1)[C@H](O)C2 [(−) EC] | 1.2 | 1.2 | 
Oc1cc(O)c2c(c1)O[C@H](c1cc(O)c(O)c(O)c1)[C@H](O)C2 [(−) EGC] | 1.3 | 1.0 | 
O=C(O[C@@H]1Cc2c(O)cc(O)cc2O[C@H]1c1cc(O)c(O)c(O)c1)c1cc(O)c(O)c(O)c1 [(−) GCG, gallocatechin gallate] | 1.1 | 2.3 | fold (PPAR-α activation) (PPAR-α [2]; GCG 100, theobromine 0, quercetin 0): 1.191 fold
Oc1cc(O)c2c(c1)O[C@@H](c1cc(O)c(O)c(O)c1)[C@H](O)C2 [(−) GC] | 1.1 | 1.0 | 
Cn1c(=O)c2c(ncn2C)n(C)c1=O [Caffeine] | 1.3 | 1.6 | 
O=C(O)c1cc(O)c(O)c(O)c1 [Gallic acid] | 1.3 | 1.7 | 
O=c1c(O)c(-c2ccc(O)cc2)oc2cc(O)cc(O)c12 [Kaempferol] | 1.7 | 1.4 | 
O=c1c(O)c(-c2cc(O)c(O)c(O)c2)oc2cc(O)cc(O)c12 [Myricetin] | 1.7 | 1.6 | 
Cc1cccc(Nc2cc(Cl)nc(SCC(=O)O)n2)c1C [Positive Control, Wy14643] | 3.8 |  | PPAR-α Activation (PPAR-α [1]; 0.1 uM): 1.5; PPAR-α Activation (PPAR-α [1]; 1 uM): 2.6
O=c1c(O)c(-c2ccc(O)c(O)c2)oc2cc(O)cc(O)c12 [Quercetin] | 1.7 | 2.3 | fold (PPAR-α activation) (PPAR-α [2]; GCG 0, theobromine 0, quercetin 100): 1.3 fold
O=C(O)[C@]1(O)C[C@@H](O)[C@@H](O)[C@H](O)C1 [Quinic acid] | 1.3 | 1.7 | 
C[C@@H]1O[C@@H](OC[C@H]2O[C@@H](Oc3c(-c4ccc(O)c(O)c4)oc4cc(O)cc(O)c4c3=O)[C@H](O)[C@@H](O)[C@@H]2O)[C@H](O)[C@H](O)[C@H]1O [Rutin hydrate] | 1.6 | 1.3 | 
CCNC(=O)CC[C@H](N)C(=O)O [Theanine] | 1.8 | 1.9 | 
Cn1cnc2c1c(=O)[nH]c(=O)n2C [Theobromine] | 2.2 | 4.5 | fold (PPAR-α activation) (PPAR-α [2]; GCG 0, theobromine 100, quercetin 0): 1.905 fold
Cn1c(=O)c2[nH]cnc2n(C)c1=O [Theophylline] | 1.4 | 1.7 | 
Epigallocatechin gallate [(−) EGCG] | 1.0 | 1.5 | 
